# Source: US5140009A (Tap Pharmaceuticals, Inc., priority 1990, dated 1992)
# Numbered stars: 1 amine (or outer) side, 2 acyl side, 3 side chain; on linkers, the order of the positions; unused ones are H or OH. Square brackets hold non-standard residues; d marks the D form. Side chains are listed from the residue outwards. Peptide text beside a SMILES is read from it. * marks the point of attachment. Propanoyl(3-(4-F-phenyl)) = O=C(CCc1ccc(F)cc1)*; Propanoyl(3-(4-Cl-Ph)) = O=C(CCc1ccc(Cl)cc1)*; X7 = CC1(C)CN(CC(=O)*)C(=O)C(c2ccccc2)=N1; 1Nal = N[C@@H](Cc1cccc2ccccc12)C(=O)O; d1Nal = N[C@H](Cc1cccc2ccccc12)C(=O)O; Lys(iPr) = CC(C)NCCCC[C@H](N)C(=O)O; NMeY = CN[C@@H](Cc1ccc(O)cc1)C(=O)O; d3Pal = N[C@H](Cc1cccnc1)C(=O)O; d2Thi = N[C@H](Cc1cccs1)C(=O)O; NHPhenethyl = c1ccc(CCN*)cc1; X16 = O=C(c1cc2ccccc2[nH]1)*; Nicotinoyl = O=C(c1cccnc1)*; dOrn = NCCC[C@@H](N)C(=O)O; X9 = O=C(CCc1ccc(Br)cc1)*; Morpholide = C1CN(*)CCO1; X15 = O=C(Cc1ccc(O)cc1)*; PhAc = O=C(Cc1ccccc1)*; CO = O=C([*:1])[*:2]; Bn = c1ccc(C*)cc1
# Target: T1, LHRH receptors (Rattus norvegicus, UniProt P30969)
# T1 construct: Pituitary membranes containing LHRH receptors are prepared in batches from quick-frozen rat pituitaries; tissue Hilltop Labs; host or cells: rat pituitary membranes
# T1 sequence (P30969 1-327): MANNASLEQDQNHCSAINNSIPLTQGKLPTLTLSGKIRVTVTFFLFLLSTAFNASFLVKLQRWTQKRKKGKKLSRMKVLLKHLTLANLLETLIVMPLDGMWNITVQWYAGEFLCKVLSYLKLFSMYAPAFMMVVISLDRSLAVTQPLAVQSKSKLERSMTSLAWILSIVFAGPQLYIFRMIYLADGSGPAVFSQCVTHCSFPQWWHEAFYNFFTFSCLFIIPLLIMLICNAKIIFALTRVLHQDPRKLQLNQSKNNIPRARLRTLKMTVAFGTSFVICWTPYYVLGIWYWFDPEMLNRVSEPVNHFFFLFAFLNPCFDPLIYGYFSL
# Experiment: Receptor Binding (radioligand receptor binding assay)
# Conditions: Receptor Binding pkI, table 4; rat pituitary membranes, radioligand 50 pM, 2 hours at 4° C.
row,Compound,Ki
1,"CC(C)C[C@H](NC(=O)[C@@H](Cc1c[nH]c2ccccc12)NC(=O)[C@H](Cc1ccc(O)cc1)N(C)C(=O)[C@H](CO)NC(=O)[C@@H](Cc1c[nH]c2ccccc12)NC(=O)[C@@H](Cc1ccccc1)NC(=O)NCCc1ccccc1)C(=O)N[C@@H](CCCNC(=N)N)C(=O)N1CCC[C@H]1C(=O)N[C@H](C)C(N)=O [Compound 234, N-(alpha-Phenethylaminocarbonyl)-D-Phe-D-Trp-Ser-NMeTyr-D-Trp-Leu-Arg-Pro-D-AlaNH2] ({NHPhenethyl-CO}-[dF][dW]S[NMeY][dW]LRP[dA]-NH2)",0.398 nM

# Same assay, conditions: table 3; rat pituitary membranes, radioiodinated [D-Leu^6 -des Gly^10 ]-LHRH ethyl amide 50 pM, 2 hours at 4° C.; read-out: Receptor Binding pkI (converted)
row,Compound,Ki
1,"CCNC(=O)[C@@H]1CCCN1C(=O)[C@H](CCCN=C(N)N)NC(=O)[C@H](CC(C)C)NC(=O)[C@@H](CCCCNC(=O)c1cccnc1)NC(=O)[C@H](Cc1ccc(O)cc1)NC(=O)[C@H](CO)NC(=O)[C@H](Cc1c[nH]c2ccccc12)NC(=O)CCc1ccc(F)cc1 [Compound 119, N-(3-(4-Fluorophenyl)propionyl)-Trp-Ser-Tyr-D-Lys(Nic) -Leu-Arg-Pro-NHEt] ({Propanoyl(3-(4-F-phenyl))}-WSY[dK](Nicotinoyl)LRP-NHEt)",0.347 nM
2,"CCNC(=O)[C@@H]1CCCN1C(=O)[C@H](CCCNC(=N)N)NC(=O)[C@H](CC(C)C)NC(=O)[C@@H](Cc1c[nH]c2ccccc12)NC(=O)[C@H](Cc1ccc(O)cc1)NC(=O)[C@H](CO)NC(=O)[C@H](Cc1ccc(O)cc1)N(C)C(=O)[C@H](Cc1ccccc1)NC(=O)N1CCOCC1 [Compound 116, (2-9)[N-(N-alpha-Morpholinocarbonyl)-Phe^2 -N-Me-Tyr^3 -D-Trp^6-Pro^9 NHEt]LHRH] ({Morpholide-CO}-F[NMeY]SY[dW]LRP-NHEt)",5.01 nM
3,"CCNC(=O)[C@@H]1CCCN1C(=O)[C@H](CCCNC(=N)N)NC(=O)[C@H](CC(C)C)NC(=O)[C@@H](Cc1c[nH]c2ccccc12)NC(=O)[C@H](Cc1ccc(O)cc1)NC(=O)[C@H](CO)NC(=O)[C@H](Cc1c[nH]c2ccccc12)NC(=O)CCc1ccc(F)cc1 [Compound 97, (3-9)[N-(3-(4-Fluorophenyl)propionyl) -Trp^3 -D-Trp^6 -Pro^9 NHEt]LHRH] ({Propanoyl(3-(4-F-phenyl))}-WSY[dW]LRP-NHEt)",0.0331 nM
4,"CCNC(=O)[C@@H]1CCCN1C(=O)[C@H](CCCNC(=N)N)NC(=O)[C@H](CC(C)C)NC(=O)[C@@H](Cc1c[nH]c2ccccc12)NC(=O)[C@H](Cc1ccc(O)cc1)NC(=O)[C@H](CO)NC(=O)Cc1ccc(O)cc1 [Compound 73, (4-9)[N-(3-(4-Hydroxyphenyl)acetyl) -Ser^4 -D-Trp^6 -Pro^9 NHEt]LHRH] (X15-SY[dW]LRP-NHEt)",70.8 nM
5,"CCNC(=O)[C@@H]1CCCN1C(=O)[C@H](CCCN=C(N)N)NC(=O)[C@H](CC(C)C)NC(=O)[C@@H](Cc1c[nH]c2ccccc12)NC(=O)[C@H](Cc1ccc(O)cc1)NC(=O)[C@H](CO)NC(=O)[C@H](Cc1c[nH]c2ccccc12)NC(=O)c1cc2ccccc2[nH]1 [Compound 101, (3-9)[N-(2-Indolecarbonyl)-Trp^3 -D-Trp^6 -Pro^9 NHEt]LHRH] (X16-WSY[dW]LRP-NHEt)",12.6 nM
6,"CCNC(=O)[C@@H]1CCCN1C(=O)[C@H](CCCNC(=N)N)NC(=O)[C@H](CC(C)C)NC(=O)[C@@H](Cc1c[nH]c2ccccc12)NC(=O)[C@H](Cc1ccc(O)cc1)NC(=O)[C@H](CO)NC(=O)[C@H](Cc1c[nH]c2ccccc12)NC(=O)[C@H](Cc1cccc2ccccc12)NC(=O)N1CCOCC1 [Compound 110, (2-9)[N-(N-alpha-Morpholinocarbonyl)-1-Nal^2 -D-Trp^6 -Pro^9 NHEt]LHRH] ({Morpholide-CO}-[1Nal]WSY[dW]LRP-NHEt)",0.1 nM
7,"CCNC(=O)[C@@H]1CCCN1C(=O)[C@H](CCCNC(=N)N)NC(=O)[C@H](CC(C)C)NC(=O)[C@@H](Cc1c[nH]c2ccccc12)NC(=O)[C@H](CCCCN)NC(=O)[C@H](CO)NC(=O)[C@H](Cc1c[nH]c2ccccc12)NC(=O)[C@H](Cc1c[nH]cn1)NC(=O)CN1CC(C)(C)N=C(c2ccccc2)C1=O [Compound 71, N-(5,6-Dihydro-5,5-dimethyl-2-oxo-3-phenyl-1-(2H)-pyrazineacetyl)-His-Trp-Ser-Lys-D-Trp-Leu-Arg-ProNHEt] (X7-HWSK[dW]LRP-NHEt)",3.16 nM
8,"CCNC(=O)[C@@H]1CCCN1C(=O)[C@H](CCCNC(=N)N)NC(=O)[C@H](CC(C)C)NC(=O)[C@@H](Cc1c[nH]c2ccccc12)NC(=O)[C@H](Cc1ccc(O)cc1)NC(=O)[C@H](CO)NC(=O)Cc1ccccc1 [Compound 17, (4-9)[N-(Phenylacetyl)-Ser^4 -D-Trp^6 -Pro^9-NHEt] LHRH] (PhAc-SY[dW]LRP-NHEt)",6.61 nM

# Same assay, conditions: table 4; rat pituitary membranes, radioligand 50 pM, 2 hours at 4° C.; read-out: Receptor Binding pkI (converted)
row,Compound,Ki
1,"CC(C)C[C@H](NC(=O)[C@@H](CCCN)NC(=O)[C@H](Cc1ccc(O)cc1)N(C)C(=O)[C@H](CO)NC(=O)[C@@H](Cc1cccc2ccccc12)NC(=O)CCc1ccc(F)cc1)C(=O)N[C@@H](CCCNC(=N)N)C(=O)N1CCC[C@H]1C(=O)N[C@H](C)C(N)=O [Compound 192, (3-10)[N-(3-(4-Fluorophenyl)propionyl)-D-1-Nal^3 -NMeTyr^5 -D-Orn^6 -D-Ala^10]LHRH] ({Propanoyl(3-(4-F-phenyl))}-[d1Nal]S[NMeY][dOrn]LRP[dA]-NH2)",0.00676 nM
2,"CC(C)C[C@H](NC(=O)[C@@H](Cc1c[nH]c2ccccc12)NC(=O)[C@H](Cc1ccc(O)cc1)NC(=O)[C@H](CO)NC(=O)[C@@H](Cc1c[nH]c2ccccc12)NC(=O)CCc1ccc(F)cc1)C(=O)N[C@@H](CCCNC(=N)N)C(=O)N1CCC[C@H]1C(=O)N[C@H](C)C(N)=O [Compound 162, (3-10)[N-(3-(4-Fluorophenyl)propionyl)-D-Trp^3,6 -D-Ala^10]LHRH] ({Propanoyl(3-(4-F-phenyl))}-[dW]SY[dW]LRP[dA]-NH2)",0.0105 nM
3,"CC(C)C[C@H](NC(=O)[C@@H](CCCCNC(=O)N1CCOCC1)NC(=O)[C@H](Cc1ccc(O)cc1)N(C)C(=O)[C@H](CO)NC(=O)[C@@H](Cc1cccc2ccccc12)NC(=O)CCc1ccc(F)cc1)C(=O)N[C@@H](CCCCNC(C)C)C(=O)N1CCC[C@H]1C(=O)N[C@H](C)C(N)=O [Compound 213, N-(3-(4-Fluorophenyl)propionyl)-D-1-Nal-Ser-NMeTyr-D-Lys(N-epsilon-morpholnecarbonyl)-Leu-Lys(N-epsilon-isopropyl)-Pro-D-AlaNH2] ({Propanoyl(3-(4-F-phenyl))}-[d1Nal]S[NMeY][dK]([CO-Morpholide])L[Lys(iPr)]P[dA]-NH2)",0.0148 nM
4,"CCNC(=O)[C@@H]1CCCN1C(=O)[C@H](CCCNC(=N)N)NC(=O)[C@H](CC(C)C)NC(=O)[C@@H](Cc1c[nH]c2ccccc12)NC(=O)[C@H](Cc1ccc(O)cc1)NC(=O)[C@H](CO)NC(=O)[C@H](Cc1cccc2ccccc12)NC(=O)[C@H](Cc1ccccc1)NC(=O)N1CCOCC1 [Compound 237, (2-9)[N-(alpha-Morpholinocarbonyl)-Phe^2-1-Nal^3 -D-Trp^6 -Pro^9 NHEt]LHRH] ({Morpholide-CO}-F[1Nal]SY[dW]LRP-NHEt)",0.0355 nM
5,"CC(C)C[C@H](NC(=O)[C@@H](CCCCN)NC(=O)[C@H](Cc1ccc(O)cc1)N(C)C(=O)[C@H](COCc1ccccc1)NC(=O)[C@@H](Cc1cccs1)NC(=O)CCc1ccc(Cl)cc1)C(=O)N[C@@H](CCCNC(=N)N)C(=O)N1CCC[C@H]1C(=O)N[C@H](C)C(N)=O [Compound 168, (3-10)[N-(3-(4-Chlorophenyl)propionyl)-D-Thia^3 -Ser(O-Bzl)^4 -NMeTyr^5 -D-Lys^6 -D-Ala^10]LHRH] ({Propanoyl(3-(4-Cl-Ph))}-[d2Thi]S(Bn)[NMeY][dK]LRP[dA]-NH2)",0.129 nM
6,"CC(C)C[C@H](NC(=O)[C@@H](Cc1c[nH]c2ccccc12)NC(=O)[C@H](Cc1ccc(O)cc1)N(C)C(=O)[C@H](CO)NC(=O)[C@@H](Cc1c[nH]c2ccccc12)NC(=O)[C@H](Cc1cccc2ccccc12)NC(=O)N1CCOCC1)C(=O)N[C@@H](CCCNC(=N)N)C(=O)N1CCC[C@H]1C(=O)N[C@H](C)C(N)=O [Compound 221, (2-10)[N-(alpha-Morpholinocarbonyl)-1-Nal^2 -D-Trp^3,6 -NMeTyr^5 -D-Ala^10]LHRH] ({Morpholide-CO}-[1Nal][dW]S[NMeY][dW]LRP[dA]-NH2)",0.204 nM
7,"CCNC(=O)N[C@@H](Cc1ccccc1)C(=O)N[C@H](Cc1cccc2ccccc12)C(=O)N[C@@H](CO)C(=O)N[C@@H](Cc1ccc(O)cc1)C(=O)N[C@H](Cc1c[nH]c2ccccc12)C(=O)N[C@@H](CC(C)C)C(=O)N[C@@H](CCCNC(=N)N)C(=O)N1CCC[C@H]1C(=O)NCC [Compound 238, (2-9)[N-(alpha-Ethylaminocarbonyl)-Phe^2 -D-1-Nal^3 -D-Trp^6 -Pro^9 NHEt]LHRH] ({NHEt-CO}-F[d1Nal]SY[dW]LRP-NHEt)",0.251 nM
8,"CC(C)C[C@H](NC(=O)[C@@H](Cc1cccnc1)NC(=O)[C@H](Cc1ccc(O)cc1)NC(=O)[C@H](COCc1ccccc1)NC(=O)[C@@H](Cc1cccc2ccccc12)NC(=O)CCc1ccc(F)cc1)C(=O)N[C@@H](CCCCNC(C)C)C(=O)N1CCC[C@H]1C(=O)N[C@H](C)C(N)=O [Compound 202, (3-10)[N-(3-(4-Fluorophenyl)propionyl)-D-1-Nal^3 -Ser^4 (O-Bzl)-D-3-Pal^6 -Lys^8 (N-epsilon-isopropyl)-D-Ala^10]LHRH] ({Propanoyl(3-(4-F-phenyl))}-[d1Nal]S(Bn)Y[d3Pal]L[Lys(iPr)]P[dA]-NH2)",0.138 nM
9,"CCNC(=O)[C@@H]1CCCN1C(=O)[C@H](CCCNC(=N)N)NC(=O)[C@H](CC(C)C)NC(=O)[C@@H](Cc1c[nH]c2ccccc12)NC(=O)[C@H](Cc1ccc(O)cc1)N(C)C(=O)[C@H](CO)NC(=O)[C@@H](Cc1cccc2ccccc12)NC(=O)CCc1ccc(Br)cc1 [Compound 159, (3-9)[N-(3-(4-Bromophenyl)propionyl)-D -1-Nal^3 -NMeTyr^5 -DTrp^6 -Pro^9 NHEt]LHRH] (X9-[d1Nal]S[NMeY][dW]LRP-NHEt)",0.0562 nM
